From PubChem BioAssay (NCI)
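Following 48 hours of exposure in 96-well plates, responses at five concentrations were used to interpolate endpoints linearly. GI50: concentration for 50% inhibition of growth. TGI is the concentration that stops growth completely.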

How the values were obtained:
Assay in all cases: growth of human tumour cells (NCI), 48 h
IGROV1 ovarian = tested on: IGROV1 ovarian
HS 578T breast = tested on: HS 578T breast
CAKI-1 renal = tested on: CAKI-1 renal
SNB-19 CNS = tested on: SNB-19 CNS
HCT-15 colon = tested on: HCT-15 colon
SR leukemia = tested on: SR leukemia
LOX IMVI melanoma = tested on: LOX IMVI melanoma
DU-145 prostate = tested on: DU-145 prostate
RXF 393 renal = tested on: RXF 393 renal
UACC-257 melanoma = tested on: UACC-257 melanoma

Compound: Cc1ccc(S(=O)(=O)Nc2cc(=O)[nH]c3c2CCC3)cc1
- TGI (IGROV1 ovarian): > 100 µM
- TGI (HS 578T breast): > 100 µM
- TGI (CAKI-1 renal): > 100 µM
- TGI (SNB-19 CNS): > 100 µM
- TGI (HCT-15 colon): > 100 µM
- TGI (SR leukemia): > 100 µM
- TGI (LOX IMVI melanoma): > 100 µM
- TGI (DU-145 prostate): > 100 µM
- TGI (RXF 393 renal): > 100 µM
- TGI (UACC-257 melanoma): > 100 µM

Compound: Cc1ccc([N+](=O)[O-])cc1S(=O)(=O)Nc1ccc(C2=NN(C(=O)c3ccccc3)C(c3ccccc3O)C2)cc1 (stereo unspecified)
- TGI (IGROV1 ovarian): 25.4 µM
- TGI (HS 578T breast): > 100 µM
- TGI (CAKI-1 renal): 91.9 µM
- TGI (SNB-19 CNS): > 100 µM
- TGI (HCT-15 colon): 33.5 µM
- TGI (SR leukemia): > 100 µM
- TGI (LOX IMVI melanoma): 45.6 µM
- TGI (DU-145 prostate): 41.5 µM
- TGI (RXF 393 renal): 31.9 µM
- TGI (UACC-257 melanoma): 51.8 µM

Compound: CN(CCc1ccccn1)c1ccc2c(c1)Cc1ccccc1-2
- TGI (IGROV1 ovarian): 88.1 µM
- TGI (HS 578T breast): 9.92 µM
- TGI (CAKI-1 renal): > 100 µM
- TGI (SNB-19 CNS): 58 µM
- TGI (HCT-15 colon): > 100 µM
- TGI (LOX IMVI melanoma): > 100 µM
- TGI (DU-145 prostate): > 100 µM
- TGI (RXF 393 renal): > 100 µM
- TGI (UACC-257 melanoma): 92.2 µM

Compound: C=C(CN(C)C)C(=O)c1ccccc1Cl
- TGI (IGROV1 ovarian): > 70.8 µM
- TGI (CAKI-1 renal): 30.9 µM
- TGI (SNB-19 CNS): > 100 µM
- TGI (HCT-15 colon): 38.8 µM
- TGI (SR leukemia): > 81.7 µM
- TGI (LOX IMVI melanoma): 33.4 µM
- TGI (DU-145 prostate): > 100 µM
- TGI (RXF 393 renal): 29.6 µM
- TGI (UACC-257 melanoma): 37.5 µM

Compound: CCCCSCCC(N)P(=O)(O)O (stereo unspecified)
- TGI (IGROV1 ovarian): > 100 µM
- TGI (HS 578T breast): > 100 µM
- TGI (CAKI-1 renal): > 100 µM
- TGI (SNB-19 CNS): > 100 µM
- TGI (HCT-15 colon): > 100 µM
- TGI (SR leukemia): > 100 µM
- TGI (LOX IMVI melanoma): > 100 µM
- TGI (DU-145 prostate): > 100 µM
- TGI (UACC-257 melanoma): > 100 µM

Compound: Oc1ccc(Cl)cc1C1=Nn2c(COc3ccc4c(c3)CCCC4)nnc2SC1
- TGI (IGROV1 ovarian): 26.3 µM
- TGI (HS 578T breast): 30 µM
- TGI (CAKI-1 renal): 49.6 µM
- TGI (SNB-19 CNS): 50.5 µM
- TGI (HCT-15 colon): 36.7 µM
- TGI (LOX IMVI melanoma): 29.3 µM
- TGI (DU-145 prostate): 40 µM
- TGI (RXF 393 renal): 32.9 µM
- TGI (UACC-257 melanoma): 35.6 µM

Compound: O=C1CNc2cc(N3CCCCC3)ccc2N1
- TGI (IGROV1 ovarian): 29.7 µM
- TGI (HS 578T breast): > 100 µM
- TGI (SNB-19 CNS): > 100 µM
- TGI (HCT-15 colon): > 100 µM
- TGI (SR leukemia): > 100 µM
- TGI (DU-145 prostate): > 100 µM
- TGI (UACC-257 melanoma): > 100 µM

Compound: CN(CCN1C(=O)c2cccc3cccc(c23)C1=O)CCN1C(=O)c2cccc3cccc(c23)C1=O
- TGI (IGROV1 ovarian): > 100 µM
- TGI (HS 578T breast): > 100 µM
- TGI (CAKI-1 renal): > 100 µM
- TGI (SNB-19 CNS): 16.8 µM
- TGI (HCT-15 colon): > 100 µM
- TGI (SR leukemia): 13 µM
- TGI (LOX IMVI melanoma): > 100 µM
- TGI (DU-145 prostate): > 100 µM
- TGI (RXF 393 renal): 76.9 µM
- TGI (UACC-257 melanoma): > 100 µM

Compound: COc1cc(/C=C2\CC3C4CC[C@H]5C[C@@H](O)CC[C@]5(C)C4CC[C@]3(C)\C2=N\O)cc(OC)c1OC (stereo partly specified)
- TGI (IGROV1 ovarian): > 100 µM
- TGI (HS 578T breast): 75.7 µM
- TGI (CAKI-1 renal): 29.3 µM
- TGI (SNB-19 CNS): > 100 µM
- TGI (HCT-15 colon): > 100 µM
- TGI (LOX IMVI melanoma): 64.2 µM
- TGI (DU-145 prostate): > 100 µM
- TGI (RXF 393 renal): 36.8 µM
- TGI (UACC-257 melanoma): 56.7 µM

Compound: O=S(C(c1ccccc1)=P(c1ccccc1)(c1ccccc1)c1ccccc1)c1ccc(Cl)cc1 (stereo unspecified)
- TGI (IGROV1 ovarian): > 100 µM
- TGI (HS 578T breast): 55.3 µM
- TGI (CAKI-1 renal): > 100 µM
- TGI (HCT-15 colon): > 100 µM
- TGI (SR leukemia): > 100 µM
- TGI (LOX IMVI melanoma): > 100 µM
- TGI (DU-145 prostate): 42.7 µM
- TGI (RXF 393 renal): 95.1 µM
- TGI (UACC-257 melanoma): > 100 µM

Compound: CS(=O)(=O)Nc1ccc(NCc2cnc3ccc4[nH]cccc4c23)cc1
- TGI (IGROV1 ovarian): > 100 µM
- TGI (HS 578T breast): 57 µM
- TGI (CAKI-1 renal): 65 µM
- TGI (SNB-19 CNS): > 100 µM
- TGI (HCT-15 colon): > 100 µM
- TGI (SR leukemia): 47.7 µM
- TGI (LOX IMVI melanoma): > 100 µM
- TGI (DU-145 prostate): 71.3 µM
- TGI (RXF 393 renal): 41.9 µM
- TGI (UACC-257 melanoma): 51.9 µM

Compound: O=C1/C(=C/c2ccc([N+](=O)[O-])cc2)Sc2scc(-c3cccc([N+](=O)[O-])c3)[n+]21
- TGI (IGROV1 ovarian): 10.7 µM
- TGI (HS 578T breast): 48.1 µM
- TGI (CAKI-1 renal): 7.03 µM
- TGI (SNB-19 CNS): 31.5 µM
- TGI (HCT-15 colon): 5.75 µM
- TGI (LOX IMVI melanoma): 8.03 µM
- TGI (DU-145 prostate): 23.7 µM
- TGI (RXF 393 renal): 7.94 µM
- TGI (UACC-257 melanoma): 18.4 µM

Compound: C#C[C@]1(O)[C@@H](CO)O[C@@H](n2ccc(=O)[nH]c2=O)[C@@H]1O
- TGI (IGROV1 ovarian): 2.59 µM
- TGI (HS 578T breast): > 23.5 µM
- TGI (SNB-19 CNS): > 62.1 µM
- TGI (SR leukemia): > 100 µM
- TGI (LOX IMVI melanoma): 1.57 µM
- TGI (DU-145 prostate): 0.695 µM
- TGI (UACC-257 melanoma): > 84.5 µM

Compound: NC(N)=N/N=C/c1c(-c2cccs2)nc2n1CCS2
- GI50 (IGROV1 ovarian): 34.9 µM
- TGI (IGROV1 ovarian): > 100 µM
- GI50 (HS 578T breast): 18.8 µM
- TGI (HS 578T breast): 77.4 µM
- GI50 (SNB-19 CNS): 22 µM
- TGI (SNB-19 CNS): 57.8 µM
- GI50 (HCT-15 colon): 20.6 µM
- TGI (HCT-15 colon): 60.1 µM
- GI50 (SR leukemia): 17.6 µM
- TGI (SR leukemia): 34 µM
- GI50 (RXF 393 renal): 77.7 µM
- TGI (RXF 393 renal): > 100 µM
- GI50 (UACC-257 melanoma): 22.3 µM
- TGI (UACC-257 melanoma): 44.8 µM

Compound: CCOC(=O)c1cccc(N=Nc2ncc(/C=C/C(=O)OC)[nH]2)c1
- TGI (IGROV1 ovarian): 83.8 µM
- TGI (HS 578T breast): > 100 µM
- TGI (CAKI-1 renal): > 100 µM
- TGI (SNB-19 CNS): > 100 µM
- TGI (HCT-15 colon): > 100 µM
- TGI (SR leukemia): > 100 µM
- TGI (LOX IMVI melanoma): 51 µM
- TGI (DU-145 prostate): > 100 µM
- TGI (RXF 393 renal): > 100 µM
- TGI (UACC-257 melanoma): 46.4 µM

Compound: COc1ccc(-n2nc(C(=O)c3ccccc3)c3nn4c(=O)cc(-c5ccccc5)nc4nc32)cc1
- GI50 (IGROV1 ovarian): 25.9 µM
- TGI (IGROV1 ovarian): > 100 µM
- GI50 (HS 578T breast): 69.9 µM
- TGI (HS 578T breast): > 100 µM
- GI50 (CAKI-1 renal): > 100 µM
- TGI (CAKI-1 renal): > 100 µM
- GI50 (SNB-19 CNS): 69.1 µM
- TGI (SNB-19 CNS): > 100 µM
- GI50 (HCT-15 colon): 43.4 µM
- TGI (HCT-15 colon): > 100 µM
- GI50 (SR leukemia): 24.9 µM
- TGI (SR leukemia): > 100 µM
- GI50 (LOX IMVI melanoma): 34.5 µM
- TGI (LOX IMVI melanoma): > 100 µM
- GI50 (DU-145 prostate): 49.2 µM
- TGI (DU-145 prostate): > 100 µM
- GI50 (RXF 393 renal): > 100 µM
- TGI (RXF 393 renal): > 100 µM
- GI50 (UACC-257 melanoma): 42.6 µM
- TGI (UACC-257 melanoma): > 100 µM
